Here are results for 37 compounds from paper PMC3265452 (PLoS Neglected Tropical Diseases, 2012).

For one assay, the target named is AaDOP2 (Aedes aegypti, UniProt H6D5H2). Briefly: AaDOP2 antagonist screen of the LOPAC1280 library (HEK-CRELuc-Aadop2 cells, luminescence). It is filed as cell-based.
Sequence of AaDOP2 (H6D5H2 1-476): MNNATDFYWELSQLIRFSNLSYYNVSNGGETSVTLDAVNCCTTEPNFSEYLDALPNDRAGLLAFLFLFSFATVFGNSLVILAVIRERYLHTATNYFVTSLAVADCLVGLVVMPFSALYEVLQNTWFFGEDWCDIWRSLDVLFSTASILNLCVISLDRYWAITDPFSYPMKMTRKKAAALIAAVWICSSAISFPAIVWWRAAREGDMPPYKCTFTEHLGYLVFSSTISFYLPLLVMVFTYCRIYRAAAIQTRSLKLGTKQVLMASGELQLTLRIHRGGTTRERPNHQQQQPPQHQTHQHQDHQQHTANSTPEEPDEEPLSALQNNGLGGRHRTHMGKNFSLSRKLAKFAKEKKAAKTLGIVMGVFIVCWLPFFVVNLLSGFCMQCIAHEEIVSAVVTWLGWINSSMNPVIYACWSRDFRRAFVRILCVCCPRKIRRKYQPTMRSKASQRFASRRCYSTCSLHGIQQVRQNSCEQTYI
Settings: not given
With `CC(N)Cc1c[nH]c2ccc(OCc3cccs3)cc12` (stereo not shown) [Compound 214, BW 723C86], the “Compound effect (percent receptor signaling in presence of test compound, relative lux units relative to the SCH23390 control)” value came out at 92.

As for `O=C(O)CCCc1ccc(N(CCCl)CCCl)cc1` [Compound 215, Chlorambucil], the “Compound effect (percent receptor signaling in presence of test compound, relative lux units relative to the SCH23390 control)” value turned out to be 106.

In the case of `C[N+](C)(C)CCOP(=O)([O-])OP(=O)([O-])OC[C@H]1O[C@@H](n2ccc(N)nc2=O)[C@H](O)[C@@H]1O.[Na+]` [Compound 216, Citicoline sodium], the “Compound effect (percent receptor signaling in presence of test compound, relative lux units relative to the SCH23390 control)” value is given as 91.

With `CC(C)(Oc1ccc(C2CC2(Cl)Cl)cc1)C(=O)O` (stereo not shown) [Compound 217, Ciprofibrate], the “Compound effect (percent receptor signaling in presence of test compound, relative lux units relative to the SCH23390 control)” value is 97.

Consider `O=NN(CCCl)C(=O)NCCCl` [Compound 219, Carmustine], for which the “Compound effect (percent receptor signaling in presence of test compound, relative lux units relative to the SCH23390 control)” value turned out to be 82.

On to `CCC(C)N(C)C(=O)c1cc2ccccc2c(-c2ccccc2Cl)n1` (stereo not shown) [Compound 220, PK 11195], for which the “Compound effect (percent receptor signaling in presence of test compound, relative lux units relative to the SCH23390 control)” value was 84.

As for `O=C(O)/C=C/c1ccc(O)c(O)c1` [Compound 221, Caffeic Acid], the “Compound effect (percent receptor signaling in presence of test compound, relative lux units relative to the SCH23390 control)” value worked out at 114.

For the compound `O=C1CCc2cc(OCCCCc3nnnn3C3CCCCC3)ccc2N1` [Compound 222, Cilostazol], the “Compound effect (percent receptor signaling in presence of test compound, relative lux units relative to the SCH23390 control)” value worked out at 108.

In the case of `O=P1(N(CCCl)CCCl)NCCCO1` (stereo not shown) [Compound 224, Cyclophosphamide monohydrate], the “Compound effect (percent receptor signaling in presence of test compound, relative lux units relative to the SCH23390 control)” value worked out at 83.

Regarding `CC(C)(CO)Cc1cc(C(C)(C)C)c(O)c(C(C)(C)C)c1` [Compound 225, CGP-7930], the “Compound effect (percent receptor signaling in presence of test compound, relative lux units relative to the SCH23390 control)” value stood at 89.

As to `CC(C)(C=O)Cc1cc(C(C)(C)C)c(O)c(C(C)(C)C)c1` [Compound 226, CGP-13501], the “Compound effect (percent receptor signaling in presence of test compound, relative lux units relative to the SCH23390 control)” value came out at 98.

For `CCCCCCC(C)(C)c1ccc([C@@H]2C[C@H](O)CC[C@H]2CCCO)c(O)c1` [Compound 227, CP55940], the “Compound effect (percent receptor signaling in presence of test compound, relative lux units relative to the SCH23390 control)” value worked out at 85.

For the compound `N[C@H]1CON=C1O` [Compound 228, L-Cycloserine], the “Compound effect (percent receptor signaling in presence of test compound, relative lux units relative to the SCH23390 control)” value is on record as 88.

As for `O=S(=O)(c1cccc2c(Cl)cccc12)N1CCCNCC1` [Compound 229, ML-9], the “Compound effect (percent receptor signaling in presence of test compound, relative lux units relative to the SCH23390 control)” value worked out at 102.

As to `CCCNC(=O)NS(=O)(=O)c1ccc(Cl)cc1` [Compound 231, Chlorpropamide], the “Compound effect (percent receptor signaling in presence of test compound, relative lux units relative to the SCH23390 control)” value came out at 98.

In the case of `COc1ccc2c(c1)c(CC(=O)O)c(C)n2Cc1ccc(Cl)cc1` [Compound 232, 1-(4-Chlorobenzyl)-5-methoxy-2-methylindole-3-acetic acid], the “Compound effect (percent receptor signaling in presence of test compound, relative lux units relative to the SCH23390 control)” value is listed as 77.

As to `C[N+](C)(C)CCO.[Br-]` [Compound 234, Choline bromide], the “Compound effect (percent receptor signaling in presence of test compound, relative lux units relative to the SCH23390 control)” value came to 89.

On to `NC(=O)c1cc(N2CC2)c([N+](=O)[O-])cc1[N+](=O)[O-]` [Compound 236, CB 1954], for which the “Compound effect (percent receptor signaling in presence of test compound, relative lux units relative to the SCH23390 control)” value is 81.

For the compound `C[C@]12C[C@H](O)[C@H]3[C@@H](CCC4=CC(=O)CC[C@@]43C)[C@@H]1CC[C@@H]2C(=O)CO` [Compound 238, Corticosterone], the “Compound effect (percent receptor signaling in presence of test compound, relative lux units relative to the SCH23390 control)” value amounted to 87.

In the case of `N.N.O=C([O-])C1(C(=O)[O-])CCC1.[Pt+2]` [Compound 239, Carboplatin], the “Compound effect (percent receptor signaling in presence of test compound, relative lux units relative to the SCH23390 control)” value amounted to 83.

Take `COc1ccc2c(c[n+](C)c3c4cc5c(cc4ccc23)OCO5)c1OC` [Compound 241, Chelerythrine chloride]: the “Compound effect (percent receptor signaling in presence of test compound, relative lux units relative to the SCH23390 control)” value is reported as 112.

For the compound `Clc1ccc(C(c2ccccc2Cl)C(Cl)Cl)cc1` (stereo not shown) [Compound 242, 1-(2-Chlorophenyl)-1-(4-chlorophenyl)-2,2-dichloroethane], the “Compound effect (percent receptor signaling in presence of test compound, relative lux units relative to the SCH23390 control)” value turned out to be 108.

As to `CC(=O)OCC(=O)[C@@]1(O)CC[C@H]2[C@@H]3CCC4=CC(=O)CC[C@]4(C)[C@H]3C(=O)C[C@@]21C` [Compound 244, Cortisone 21-acetate], the “Compound effect (percent receptor signaling in presence of test compound, relative lux units relative to the SCH23390 control)” value amounted to 110.

Turning to `CCn1cnc2c(Nc3cccc(Cl)c3)nc(N[C@@H]3CCCC[C@@H]3N)nc21.Cl` [Compound 246, CGP-74514A hydrochloride], the “Compound effect (percent receptor signaling in presence of test compound, relative lux units relative to the SCH23390 control)” value stood at 99.

Consider `CC(=O)O[C@]1(C(C)=O)CC[C@H]2[C@@H]3C=C(Cl)C4=CC(=O)[C@@H]5C[C@@H]5[C@]4(C)[C@H]3CC[C@@]21C` [Compound 247, Cyproterone acetate], for which the “Compound effect (percent receptor signaling in presence of test compound, relative lux units relative to the SCH23390 control)” value came to 115.

Turning to `N[C@@H]1CON=C1O` [Compound 250, D-Cycloserine], the “Compound effect (percent receptor signaling in presence of test compound, relative lux units relative to the SCH23390 control)” value is 91.

Consider `Clc1ccc(C(c2ccc(Cl)cc2)n2cc[n+](CC(OCc3ccc(Cl)cc3Cl)c3ccc(Cl)cc3Cl)c2)cc1` (stereo not shown) [Compound 252, Calmidazolium chloride], for which the “Compound effect (percent receptor signaling in presence of test compound, relative lux units relative to the SCH23390 control)” value is recorded as 44.

`Cn1cc(C(=O)OCC2CCN(CCNS(C)(=O)=O)CC2)c2ccccc21` [Compound 253, GR 113808]: the “Compound effect (percent receptor signaling in presence of test compound, relative lux units relative to the SCH23390 control)” value came to 97.

With `NC(=O)N1c2ccccc2C=Cc2ccccc21` [Compound 254, Carbamazepine], the “Compound effect (percent receptor signaling in presence of test compound, relative lux units relative to the SCH23390 control)” value is 75.

On to `C[C@H](CS)C(=O)N1CCC[C@H]1C(=O)O` [Compound 255, Captopril], for which the “Compound effect (percent receptor signaling in presence of test compound, relative lux units relative to the SCH23390 control)” value stood at 112.

Take `CCc1cccc(N(C)C(N)=Nc2cccc3ccccc23)c1` [Compound 256, CNS-1102]: the “Compound effect (percent receptor signaling in presence of test compound, relative lux units relative to the SCH23390 control)” value turned out to be 107.

As for `C[N+](C)(C)CCOC(N)=O` [Compound 257, Carbachol], the “Compound effect (percent receptor signaling in presence of test compound, relative lux units relative to the SCH23390 control)” value is recorded as 99.

`N[C@@H](CS(=O)O)C(=O)O` [Compound 259, L-Cysteinesulfinic Acid]: the “Compound effect (percent receptor signaling in presence of test compound, relative lux units relative to the SCH23390 control)” value was 116.

With `Nc1ncnc2c1ncn2C1CCCC1` [Compound 260, 9-cyclopentyladenine], the “Compound effect (percent receptor signaling in presence of test compound, relative lux units relative to the SCH23390 control)” value was 116.

Still in this assay, the particulars now being: 10 µM compound, 300 nM dopamine, 2 hr; hit = compound effect <20.
Regarding `COc1cc2c(CCNC(C)=O)c[nH]c2cc1Cl` [Compound 218, 6-Chloromelatonin], the “Compound effect (percent receptor signaling in presence of test compound, relative lux units relative to the SCH23390 control)” value is on record as 90%.

Consider `Cl.Cl.NCCC(=O)NCCc1cnc[nH]1` [Compound 237, Carcinine dihydrochloride], for which the “Compound effect (percent receptor signaling in presence of test compound, relative lux units relative to the SCH23390 control)” value came out at 95%.

Turning to `C[C@]12CCC(=O)C=C1CC[C@@H]1[C@@H]2C(=O)C[C@@]2(C)[C@H]1CC[C@]2(O)C(=O)CO` [Compound 240, Cortisone], the “Compound effect (percent receptor signaling in presence of test compound, relative lux units relative to the SCH23390 control)” value turned out to be 86%.
